T/C data for 22 compounds are collected here from PubChem BioAssay AID330 (DTP/NCI, 2004).

The assay concerns P388 leukemia ip, CD2F1 mice, survival T/C. Nature of the assay: NCI In Vivo Anticancer Drug Screen. Data for tumor model P388 Leukemia (intraperitoneal) in CD2F1 (CDF1) mice. Conditions: endpoint: median survival time, higher = longer survival. The essentials:
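Mice carrying the transplanted tumor received test compound or vehicle. Survival was recorded in each group, and the value is the treated-group measurement divided by that of the vehicle-treated control group.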

Where [1] appears, read: dose: 12.5 mg/kg/injection, schedule: Q01DX005 (ip), vehicle: saline with Tween-80.
Where [2] appears, read: dose: 25.0 mg/kg/injection, schedule: Q01DX005 (ip), vehicle: saline with Tween-80.
Setting [3] is: dose: 50.0 mg/kg/injection, schedule: Q01DX005 (ip), vehicle: saline with Tween-80.
The mark [4] stands for this setting: dose: 100.0 mg/kg/injection, schedule: Q01DX005 (ip), vehicle: saline with Tween-80.
Where [5] appears, read: dose: 60.0 mg/kg/injection, schedule: Q01DX005 (ip), vehicle: saline with Tween-80.
Setting [6] is: dose: 120.0 mg/kg/injection, schedule: Q01DX005 (ip), vehicle: saline with Tween-80.
Setting [7] is: dose: 240.0 mg/kg/injection, schedule: Q01DX005 (ip), vehicle: saline with Tween-80.
The mark [8] stands for this setting: dose: 50.0 mg/kg/injection, schedule: Q01DX005 (ip), vehicle: Klucel (hydroxypropylcellulose) (HPC).
The mark [9] stands for this setting: dose: 100.0 mg/kg/injection, schedule: Q01DX005 (ip), vehicle: Klucel (hydroxypropylcellulose) (HPC).
Where [10] appears, read: dose: 25.0 mg/kg/injection, schedule: Q01DX009 (ip), vehicle: saline.

Several values for one entry are separate records, joined by “and”; a condition that tells them apart may be missing. Identical values can stand only once. Toxic doses and inconclusive results are not listed.

Turning to `CC(C)(C)OC(=O)NC(CCCCNC(=O)OCc1ccccc1)C(=O)NC(CCCCNC(=O)OCc1ccccc1)C(=O)NC(CCCCNC(=O)OCc1ccccc1)C(=O)OCc1ccccc1` (centres undefined), the T/C reads like this: under setting [1], 100 % of control; under setting [2], 97 % of control; under setting [3], 100 % of control.
For `O=c1c2cc3ccccc3n2c(=O)c2cc3ccccc3n12`, the T/C was 87 % of control (dose: 50.0 mg/kg/injection, schedule: Q01DX009 (ip), vehicle: Klucel (hydroxypropylcellulose) (HPC)); 91 % of control (dose: 100.0 mg/kg/injection, schedule: Q01DX009 (ip), vehicle: Klucel (hydroxypropylcellulose) (HPC)); 92 % of control (dose: 200.0 mg/kg/injection, schedule: Q01DX009 (ip), vehicle: Klucel (hydroxypropylcellulose) (HPC)).
For `C=CC(C)(C)c1cc2cc3c(cc2oc1=O)OC1(C)CCC(C(C)(C)O)OC1C3` (centres undefined), the T/C was 99 % of control under setting [1], 99 % of control under setting [2], 93 % of control under setting [3] and 89 % of control under setting [4].
For `O=C1OC2CCCC1O2` (centres undefined), the T/C under setting [3] is 106 % of control; the T/C under setting [4] is 100 % of control; the T/C (dose: 200.0 mg/kg/injection, schedule: Q01DX005 (ip), vehicle: saline with Tween-80) is 98 % of control.
With `CC(=O)N/C(=C\c1ccc([N+](=O)[O-])cc1)c1nc2ccccc2s1`, the T/C was 110 % of control under setting [5], 107 % of control under setting [6] and 113 % of control under setting [7].
Turning to `CC(=O)Oc1ccc(/C(C)=N/NC(=O)C(C)SC(C)C(=O)N/N=C(\C)c2ccc(OC(C)=O)cc2)cc1` (centres undefined), the T/C reads like this: under setting [8], 108 % of control; under setting [9], 105 % of control; (dose: 200.0 mg/kg/injection, schedule: Q01DX005 (ip), vehicle: Klucel (hydroxypropylcellulose) (HPC)) 106 % of control.
Consider `CC1OC(C)(c2ccc(Cl)c(O)c2)OC1C` (centres undefined), for which the T/C under setting [5] is 100 % of control, the T/C under setting [6] was 102 % of control and the T/C under setting [7] was 102 % of control.
`CC(=O)NCCc1nc(-c2nc(C(=O)NCCC(C)C)cs2)cs1`: the T/C (dose: 12.5 mg/kg/injection, schedule: Q01DX009 (ip), vehicle: distilled water + Tween-80) was 92 % of control; the T/C (dose: 25.0 mg/kg/injection, schedule: Q01DX009 (ip), vehicle: distilled water + Tween-80) is 94 % of control; the T/C (dose: 50.0 mg/kg/injection, schedule: Q01DX009 (ip), vehicle: distilled water + Tween-80) is 98 % of control; the T/C (dose: 100.0 mg/kg/injection, schedule: Q01DX009 (ip), vehicle: distilled water + Tween-80) is 102 % of control; the T/C (dose: 200.0 mg/kg/injection, schedule: Q01DX009 (ip), vehicle: distilled water + Tween-80) was 115 % of control.
On to `N#Cc1cc(C23CCC(C2)N3)ccc1[N+](=O)[O-]` (centres undefined), for which the T/C is, setting by setting: (dose: 100.0 mg/kg/injection, schedule: Q04DX003 (ip), vehicle: saline) 105 % of control; (dose: 200.0 mg/kg/injection, schedule: Q04DX003 (ip), vehicle: saline) 91 % of control; (dose: 400.0 mg/kg/injection, schedule: Q04DX003 (ip), vehicle: saline) 92 % of control.
Take `Ic1cc2c(cc1C1CO1)OCO2` (centres undefined): the T/C reads like this: (dose: 100.0 mg/kg/injection, schedule: Q01DX001 (ip), vehicle: Klucel (hydroxypropylcellulose) (HPC)) 103 % of control; (dose: 200.0 mg/kg/injection, schedule: Q01DX001 (ip), vehicle: Klucel (hydroxypropylcellulose) (HPC)) 99 % of control; (dose: 400.0 mg/kg/injection, schedule: Q01DX001 (ip), vehicle: Klucel (hydroxypropylcellulose) (HPC)) 96 % of control.
For the compound `CC1=CCC2C3(C)C=CC(=O)C(C)(C)C3CC3OC(=O)C=C1C32C` (centres undefined), the T/C runs as follows: (dose: 0.75 mg/kg/injection, schedule: Q01DX009 (ip), vehicle: Klucel (hydroxypropylcellulose) (HPC)) 102 % of control; (dose: 1.5 mg/kg/injection, schedule: Q01DX009 (ip), vehicle: Klucel (hydroxypropylcellulose) (HPC)) 98 % of control and 102 % of control; (dose: 3.0 mg/kg/injection, schedule: Q01DX009 (ip), vehicle: Klucel (hydroxypropylcellulose) (HPC)) 101 % of control; (dose: 6.0 mg/kg/injection, schedule: Q01DX009 (ip), vehicle: Klucel (hydroxypropylcellulose) (HPC)) 97 % of control; (dose: 12.0 mg/kg/injection, schedule: Q01DX009 (ip), vehicle: Klucel (hydroxypropylcellulose) (HPC)) 100 % of control and 97 % of control; (dose: 24.0 mg/kg/injection, schedule: Q01DX009 (ip), vehicle: Klucel (hydroxypropylcellulose) (HPC)) 100 % of control.
As for `O=c1[nH][nH]c(=O)n2c1cc1oc(-c3ccccc3)cc12`, the T/C is, setting by setting: under setting [5], 86 % of control; under setting [6], 90 % of control; under setting [7], 86 % of control.
Take `C/C(CCl)=N\NC1=NC(C)(CCl)P(=O)(NNc2ncccn2)S1` (centres undefined): the T/C by setting is: (dose: 3.75 mg/kg/injection, schedule: Q01DX005 (ip), vehicle: saline) 104 % of control; (dose: 7.5 mg/kg/injection, schedule: Q01DX005 (ip), vehicle: saline) 106 % of control; (dose: 15.0 mg/kg/injection, schedule: Q01DX005 (ip), vehicle: saline) 100 % of control and 113 % of control; (dose: 30.0 mg/kg/injection, schedule: Q01DX005 (ip), vehicle: saline) 106 % of control and 113 % of control and 97 % of control; (dose: 60.0 mg/kg/injection, schedule: Q01DX005 (ip), vehicle: saline) 105 % of control and 106 % of control and 107 % of control; (dose: 120.0 mg/kg/injection, schedule: Q01DX005 (ip), vehicle: saline) 101 % of control.
As for `CC(Cc1ccccc1)NC(=O)C1CC2CCCCN2C1C` (centres undefined), the T/C is 97 % of control under setting [5] and 95 % of control under setting [6].
For the compound `O=S=C(c1ccccc1)N(Cc1ccccc1)Cc1ccccc1`, the T/C under setting [10] was 96 % of control; the T/C (dose: 50.0 mg/kg/injection, schedule: Q01DX009 (ip), vehicle: saline) was 97 % of control; the T/C (dose: 100.0 mg/kg/injection, schedule: Q01DX009 (ip), vehicle: saline) was 97 % of control.
With `O=C1OCCCCOC(=O)c2ccccc2SSc2ccccc21`, the T/C (dose: 100.0 mg/kg/injection, schedule: Q01DX001 (ip), vehicle: saline with Tween-80) was 90 % of control; the T/C (dose: 200.0 mg/kg/injection, schedule: Q01DX001 (ip), vehicle: saline with Tween-80) was 99 % of control; the T/C (dose: 400.0 mg/kg/injection, schedule: Q01DX001 (ip), vehicle: saline with Tween-80) was 99 % of control.
On to `CN(C)[C@@H]1C(=O)C(C(=O)NCN2CCN(C(=N)N=C(N)N)CC2)=C(O)[C@@]2(O)C(=O)C3=C(O)c4c(O)cccc4[C@@](C)(O)[C@H]3C[C@@H]12`, for which the T/C is, setting by setting: (dose: 1.8 mg/kg/injection, schedule: Q01DX005 (ip), vehicle: saline) 111 % of control; (dose: 3.0 mg/kg/injection, schedule: Q01DX005 (ip), vehicle: saline) 117 % of control; (dose: 8.33 mg/kg/injection, schedule: Q01DX005 (ip), vehicle: saline) 154 % of control; (dose: 10.0 mg/kg/injection, schedule: Q01DX005 (ip), vehicle: saline) 89 % of control.
Consider `COc1cc2c(cc1OC)C(C)N1CCc3cc(OC)c(OC)cc3C1C2` (centres undefined), for which the T/C by setting is: (dose: 1.56 mg/kg/injection, schedule: Q01DX009 (ip), vehicle: Klucel (hydroxypropylcellulose) (HPC)) 103 % of control; (dose: 3.12 mg/kg/injection, schedule: Q01DX009 (ip), vehicle: Klucel (hydroxypropylcellulose) (HPC)) 98 % of control.
For `CCc1nc(N)nc(N)c1-c1ccc2c(c1)nnn2CCc1ccccc1`, the T/C runs as follows: under setting [8], 99 % of control; under setting [9], 96 % of control.
As to `S=P(N1CC1)(N1CC1)N1CC1.[Cl-].[Cl-].[NH2-].[NH2-].[Pt+4]`, the T/C (dose: 0.78 mg/kg/injection, schedule: Q01DX009 (ip), vehicle: saline) is 104 % of control; the T/C (dose: 1.56 mg/kg/injection, schedule: Q01DX009 (ip), vehicle: saline) was 113 % of control and 101 % of control; the T/C (dose: 6.25 mg/kg/injection, schedule: Q01DX009 (ip), vehicle: saline) is 178 % of control and 150 % of control and 166 % of control; the T/C under setting [10] is 88 % of control.
As to `O=C1CSC(c2ccc(Cl)cc2)N1c1nncs1` (centres undefined), the T/C is, setting by setting: under setting [5], 101 % of control; under setting [6], 102 % of control; under setting [7], 108 % of control.
As to `Cc1ccc(N(C(=O)c2ccc(Cl)cc2)C(=S)C#N)cc1`, the T/C is 89 % of control (dose: 60.0 mg/kg/injection, schedule: Q01DX005 (ip), vehicle: Klucel + Tween-80); 95 % of control (dose: 120.0 mg/kg/injection, schedule: Q01DX005 (ip), vehicle: Klucel + Tween-80); 103 % of control (dose: 240.0 mg/kg/injection, schedule: Q01DX005 (ip), vehicle: Klucel + Tween-80).
